# Laboratory results as given in patent US20230141600A1, “IMIDAZOPYRAZINE DERIVATIVES” (priority 2020, published 2023).
# Structures can show the parent of a compound that is named as a salt. Where two headings read alike, the source gives them in different places.
# Tested on: Acinetobacter baumannii ATCC17978
# Test: 90% growth inhibitory concentration (IC90) determination, antimicrobial susceptibility testing
# Type: cell-based
# Details: read-out: ATCC 17978 IC90
# Method: Antimicrobial Susceptibility Testing:
# 90% Growth Inhibitory Concentration (IC90) Determination
# The in vitro antimicrobial activity of the compounds was determined according to the following procedure:
# The assay used a 10-points Iso-Sensitest broth medium to measure quantitatively the in vitro activity of the compounds against Acinetobacter baumannii ATCC17961 and ATCC17978.
# Stock compounds in DMSO were serially twofold diluted (e.g. range from 50 to 0.097 μM final concentration) in 384 wells microtiter plates and inoculated with 49 μl the bacterial suspension in Iso-Sensitest medium to have a final cell concentration of ˜5×10^(5) CFU/ml in a final volume/well of 50 ul/well. Microtiter plates were incubated at 35±2° C.
# Bacterial cell growth was determined with the measurement of optical density at λ=600 nm each minutes over a time course of 16 h. Growth inhibition was calculated during the logarithmic growth of the bacterial cells with determination of the concentration inhibiting 50% (IC50) and 90% (IC90) of the growth.
# Table 1 provides the 90% growth inhibitory concentrations (IC90) in micromoles per liter of the compounds of present invention obtained against the strain Acinetobacter baumannii ATCC17978.
# [1] = ATCC17978, 90% growth inhibition, Iso-Sensitest broth, OD 600 nm over 16 h, 35±2° C.
IC90 [1] [nM],SMILES,"IC90 (ATCC17978, 16 h) [nM]"
148,"COc1ccc(-c2cnc3c(Nc4ccc(C(=O)NCCOCC[N+](C)(C)C)c(Br)c4)nccn23)c(F)c1F [Example 44, 2-[2-[[2-bromo-4-[[3-(2,3-difluoro-4-methoxy-phenyl)imidazo[1,2-a]pyrazin-8-yl]amino]benzoyl]amino]ethoxy]ethyl-trimethyl-ammonium 2,2,2-trifluoroacetate]",
968,"CCCC[N+](CCCC)(CCCC)CCCNC(=O)c1ccc(Nc2nccn3c(-c4ccc(OC)c(F)c4F)cnc23)cc1Cl [Example 49, Tributyl-[3-[[2-chloro-4-[[3-(2,3-difluoro-4-methoxy-phenyl)imidazo[1,2-a]pyrazin-8-yl]amino]benzoyl]amino]propyl]ammonium Formate]",
414,"Cc1cc(Nc2nccn3c(-c4ccc(OC(F)F)cc4)cnc23)ccc1C(=O)N1CCN(C(=O)C[N+](C)(C)C)CC1 [Example 42, [2-[4-[4-[[3-[4-(Difluoromethoxy)phenyl]imidazo[1,2-a]pyrazin-8-yl]amino]-2-methyl-benzoyl]piperazin-1-yl]-2-oxo-ethyl]-trimethyl-ammonium Chloride]",
165,"CCc1cc(Nc2nccn3c(-c4ccc(OC)c(F)c4F)cnc23)ccc1C(=O)NCCOCC[N+](CC)(CC)CC [Example 40, 2-(2-(4-((3-(2,3-Difluoro-4-methoxyphenyl)imidazo[1,2-a]pyrazin-8-yl)amino)-2-ethylbenzamido)ethoxy)-N,N,N-triethylethan-1-aminium Formate]",
383,"COc1ccc(-c2cnc3c(Nc4ccc(C(=O)NCCC[N+](C)(C)C)c(Cl)c4)nccn23)c(F)c1F [Example 47, 3-[[2-Chloro-4-[[3-(2,3-difluoro-4-methoxy-phenyl)imidazo[1,2-a]pyrazin-8-yl]amino]benzoyl]amino]propyl-trimethyl-ammonium Formate]",
62.8,"CCc1cc(Nc2nccn3c(-c4ccc(OC)c(F)c4F)cnc23)ccc1C(=O)NCCOCC[N+](C)(C)CCO [Example 51, 2-[2-[[4-[[3-(2,3-Difluoro-4-methoxy-phenyl)imidazo[1,2-a]pyrazin-8-yl]amino]-2-ethyl-benzoyl]amino]ethoxy]ethyl-(2-hydroxyethyl)-dimethyl-ammonium formate]",

# Second part, the compound before the results:
SMILES,IC90 [1] [nM],"IC90 (ATCC17978, 16 h) [nM]"
"Cc1cc(Nc2nccn3c(-c4ccc(OC(F)F)cc4)cnc23)ccc1C(=O)N1CCN(C(=O)N2CC[N+](C)(C)CC2)CC1 [Example 30, [4-[[3-[4-(Difluoromethoxy)phenyl]imidazo[1,2-a]pyrazin-8-yl]amino]-2-methyl-phenyl]-[4-(4,4-dimethylpiperazin-4-ium-1-carbonyl)piperazin-1-yl]methanone Formate]",497,
"Cc1cc(Nc2nccn3c(-c4ccc(OCC#N)c(F)c4F)cnc23)ccc1C(=O)N1CCC(CC[N+](C)(C)C)CC1 [Example 2, 2-[1-[4-[[3-[4-(Cyanomethoxy)-2,3-difluoro-phenyl]imidazo[1,2-a]pyrazin-8-yl]amino]-2-methyl-benzoyl]-4-piperidyl]ethyl-trimethyl-ammonium Formate]",,214
"C[N+]1(CCOCCNC(=O)c2ccc(Nc3nccn4c(-c5ccc(OCC#N)c(F)c5F)cnc34)cc2Cl)CCNC(C(=O)O)C1 (centres unmarked) [Example 17, 4-[2-[2-[[2-chloro-4-[[3-[4-(cyanomethoxy)-2,3-difluoro-phenyl]imidazo[1,2-a]pyrazin-8-yl]amino]benzoyl]amino]ethoxy]ethyl]-4-methyl-piperazin-4-ium-2-carboxylic acid Formate]",1290,
"COc1ccc(-c2cnc3c(Nc4ccc5c(c4)CCN(CCOCC[N+](C)(C)C)C5=O)nccn23)c(F)c1F [Example 16, 2-[2-[6-[[3-(2,3-difluoro-4-methoxy-phenyl)imidazo[1,2-a]pyrazin-8-yl]amino]-1-oxo-3,4-dihydroisoquinolin-2-yl]ethoxy]ethyl-trimethyl-ammonium Formate]",396,
"C[N+](C)(C)CCN1CCN(C(=O)c2ccc(Nc3nccn4c(-c5ccc(OCC#N)c(F)c5F)cnc34)cc2Cl)CC1 [Example 26, 2-[4-[2-chloro-4-[[3-[4-(cyanomethoxy)-2,3-difluorophenyl]imidazo[1,2-a]pyrazin-8-yl]amino]benzoyl]piperazin-1-yl]ethyl-trimethylazanium Iodide]",156,
"CN(CCC1CC[N+](C)(C)CC1)C(=O)c1ccc(Nc2nccn3c(-c4ccc(OCC#N)c(F)c4F)cnc23)cc1Cl [Example 38, 2-Chloro-4-[[3-[4-(cyanomethoxy)-2,3-difluoro-phenyl]imidazo[1,2-a]pyrazin-8-yl]amino]-N-[2-(1,1-dimethylpiperidin-1-ium-4-yl)ethyl]-N-methyl-benzamide 2,2,2-trifluoroacetate]",213,
"COc1ccc(-c2cnc3c(Nc4ccc(C(=O)N(C)CCOCC[N+](C)(C)C)c(C)c4)nccn23)cc1F [Example 35, 2-(2-(4-((3-(3-Fluoro-4-methoxyphenyl)imidazo[1,2-a]pyrazin-8-yl)amino)-N,2-dimethylbenzamido)ethoxy)-N,N,N-trimethylethan-1-aminium Chloride]",1050,
"C#CCOc1ccc(-c2cnc3c(Nc4ccc(C(=O)NCCOCC[N+](C)(C)C)c(CC)c4)nccn23)c(F)c1F [Example 15, 2-[2-[[4-[[3-(2,3-Difluoro-4-prop-2-ynoxy-phenyl)imidazo[1,2-a]pyrazin-8-yl]amino]-2-ethyl-benzoyl]amino]ethoxy]ethyl-trimethyl-ammonium 2,2,2-trifluoroacetate]",238,
"Cc1cc(Nc2nccn3c(-c4ccc(OC(F)F)cc4)cnc23)ccc1C(=O)NCCOCC[N+](C)(C)C [Example 1, 2-(2-(4-((3-(4-(difluoromethoxy)phenyl)imidazo[1,2-a]pyrazin-8-yl)amino)-2-methylbenzamido)ethoxy)-N,N,N-trimethylethanaminium Iodide]",658,
"COc1ccc(-c2cnc3c(Nc4ccc(C(=O)N5CCN(CC[N+](C)(C)C)CC5)c(Br)c4)nccn23)cc1F [Example 14, 2-[4-[2-Bromo-4-[[3-(3-fluoro-4-methoxy-phenyl)imidazo[1,2-a]pyrazin-8-yl]amino]benzoyl]piperazin-1-yl]ethyl-trimethyl-ammonium 2,2,2-trifluoroacetate]",476,
"COc1ccc(-c2cnc3c(Nc4ccc(C(=O)N5CC[C@@H](C(=O)NCC[N+](C)(C)C)[C@H](O)C5)c(C)c4)nccn23)cc1F [Example 37, 2-[[(3S,4R)-1-[4-[[3-(3-fluoro-4-methoxy-phenyl)imidazo[1,2-a]pyrazin-8-yl]amino]-2-methyl-benzoyl]-3-hydroxy-piperidine-4-carbonyl]amino]ethyl-trimethyl-ammonium Formate]",,4770
